2 molecules from PMC7576493, “Novel ANO1 Inhibitor from Mallotus apelta Extract Exerts Anticancer Activity through Downregulation of ANO1” (International Journal of Molecular Sciences, 2020) can be followed below.

Structures are written as SMILES. A value given as a limit tells only on which side of the number the result lay.

In assay [1] the target is T1, Anoctamin1 (ANO1) (Homo sapiens, UniProt Q5XXA6).
T1 sequence (Q5XXA6 1-986): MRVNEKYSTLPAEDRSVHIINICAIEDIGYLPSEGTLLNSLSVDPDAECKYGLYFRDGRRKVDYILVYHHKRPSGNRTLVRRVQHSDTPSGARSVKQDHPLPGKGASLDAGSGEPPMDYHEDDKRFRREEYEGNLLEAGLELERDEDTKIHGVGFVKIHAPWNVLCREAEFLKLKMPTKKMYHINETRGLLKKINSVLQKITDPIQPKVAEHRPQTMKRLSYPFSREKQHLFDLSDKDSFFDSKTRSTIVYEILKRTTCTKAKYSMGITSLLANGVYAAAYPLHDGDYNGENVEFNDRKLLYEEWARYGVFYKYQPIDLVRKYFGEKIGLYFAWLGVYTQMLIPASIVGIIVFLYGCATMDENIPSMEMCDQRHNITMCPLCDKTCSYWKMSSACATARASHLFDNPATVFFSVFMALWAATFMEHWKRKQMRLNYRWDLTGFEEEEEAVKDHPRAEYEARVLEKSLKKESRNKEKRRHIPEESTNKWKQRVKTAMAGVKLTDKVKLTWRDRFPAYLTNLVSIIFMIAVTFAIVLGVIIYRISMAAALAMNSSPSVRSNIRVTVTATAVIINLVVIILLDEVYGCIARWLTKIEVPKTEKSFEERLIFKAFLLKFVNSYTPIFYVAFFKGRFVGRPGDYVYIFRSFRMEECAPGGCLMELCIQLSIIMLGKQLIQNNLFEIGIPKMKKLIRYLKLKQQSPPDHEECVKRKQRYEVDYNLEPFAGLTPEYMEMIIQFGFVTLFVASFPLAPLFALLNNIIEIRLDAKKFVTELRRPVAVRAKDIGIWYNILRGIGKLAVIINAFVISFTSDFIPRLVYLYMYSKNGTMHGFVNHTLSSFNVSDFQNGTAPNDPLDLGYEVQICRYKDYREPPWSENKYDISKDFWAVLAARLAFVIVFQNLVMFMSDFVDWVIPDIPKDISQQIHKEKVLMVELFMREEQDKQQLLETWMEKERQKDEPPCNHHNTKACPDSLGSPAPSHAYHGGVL
Kind of assay: apical membrane (short-circuit) current in FRT cells expressing human ANO1; also YFP quenching assay. It counts as cell-based.

Assay [2] deals with T1, Anoctamin1 (ANO1). Kind of assay: YFP (F46L/H148Q/I152L) quenching iodide influx assay in FRT cells expressing human ANO1; […] inhibition at […]. Type of assay: cell-based.

One may read the IC50 as the concentration needed to halve the response being measured. High values mean lower potency, low ones higher potency. Regarding `COc1cc2c(c(OC)c1C(=O)CC(O)c1ccccc1)C=CC(C)(C)O2` (racemic) [compound 2, Ani-D2], the IC50 on Anoctamin1 (ANO1) [1] worked out at 2640 nM.

What is called inhibition is the relative decrease from the control value, in per cent. Low readings indicate little suppression, high ones strong suppression. On Anoctamin1 (ANO1) [2], `COc1cc2c(c(OC)c1C(=O)/C=C/c1ccccc1)C=CC(C)(C)O2` [compound 1, Ani-D1] yielded an inhibition at 25 µM of over 99%.
